{
  "source": "patent US6462086B1",
  "about": "“Non-malignant disease treatment with Ras antagonists” (Ramot University Authority for Applied Research and …, priority 1999, dated 2002)",
  "key": {"Ras [1]": {"test_system": "Ras", "assay": "Amount of Ras in spleen lymphocytes of FTS-treated SJL mice (Western immunoblot, pan-Ras Ab)", "type": "in vivo, mouse", "settings": "FTS 5 mg/kg/day, 48 h following treatment, densitometry", "description": "Naive SJL mice received either the vehicle or FTS (10 mg/Kg, i.p., twice a day) for 2 days. The total amounts of Ras were then determined in cell lysates prepared as detailed in (14). Briefly, spleen lymphocytes of the control and of the FTS-treated mice were homogenized in homogenization buffer as detailed previously (14-15). Total cellular protein (50 μg) corresponding to 1.2×10^6 cells, as separated by 12.5% sodium dodecylsulfate polyacrylamide gel electrophoresis (SDS-PAGE) and blotted onto nitrocellulose membranes. hmmunoblotting with pan-Ras Ab (pan-Ras Ab-3, Calbiochem), enhanced chemiluminescense assays (ECL) and densitometric analysis were then performed as detailed previously (14-15). Lymphocytes of vehicle- and of FTS-treated (5 mg/kg/day) SJL mice were obtained from the spleens of mice, 48 h following treatment. The cells where then homogenized and the total amount of Ras was determined by Western immunobloting with pan Ras antibody (14). The apparent amount of Ras in the lymphocytes of the FTS-treated mice was lower than that of the control lymphocytes."}, "Ras [2]": {"test_system": "Ras", "assay": "Ras in membranes (P100) and cytosol (S100) of cultured spleen lymphocytes (Western immunoblot)", "type": "cell-based, mouse", "settings": "for amount of insoluble (P100) Ras: 24 h, relative to FTS 0 μM = 100", "description": "Spleen lymphocytes, obtained from six mice as described above, were pooled and plated in 10 cm dishes containing RPMI/5% FCS at a density of 2.3×10^7 cells per plate. […] Twenty-four hours later the cells were collected (pools of 2 plates for each treatment) and washed in PBS. The cells were then homogenized in homogenization buffer containing protease inhibitors. Ras was determined in total cell membranes (P100) and cytosol (S100) obtained by centrifugation ([…], 30 min, 4° C.). Briefly, 25 μg of total cellular proteins were separated by 12.5% sodium dodecylsulfate polyacrylamide gel electrophoresis (SDS-PAGE) and blotted onto nitrocellulose membranes. Immunoblotting with pan-Ras, enhanced chemiluminescense assays (ECL) and densitometric analysis were then performed as detailed previously (14)."}, "MRL/lpr mice": {"test_system": "MRL/lpr mice", "assay": "Grip strength test (hang time) in MRL mice", "type": "in vivo, mouse", "description": "The four groups of mice were examined weekly using the grip strength test. Muscle strength was measured by the number of seconds the mouse was able to hang suspended on a stationary bar. A neurologically normal mouse is able to remain suspended (hang time) for 30 seconds or longer (17)."}, "MRL/lpr and MRL/++ mice": {"test_system": "MRL/lpr and MRL/++ mice", "type": "in vivo", "settings": "FTS 5 mg/Kg/day", "description": "FTS was synthesized as previously described (13). FTS was stored in chloroform, which was evaporated under a stream of nitrogen immediately before use. The powder was dissolved in absolute ethanol and diluted to the desired concentration in sterile saline made basic with NaOH. 200 μl of carrier solution containing 100 μg of FTS (5 mg/kg) were injected intraperitoneally (i.p.) into each mouse. Control solution was prepared at the same time starting with a chloroform solution.\nMice were treated once a day, 3-5 times a week starting from 6 or 10 weeks of age until 18 weeks of age.\nProteinuria was normalized in FTS-treated MRL/lpr mice as were grip strength and certain aspects of behavior in the open field."}, "[3]": {"test_system": "TAA-induced liver cirrhosis in Wistar rats", "assay": "Thioacetamide (TAA)-induced liver cirrhosis in rats, liver histopathology", "type": "in vivo, rat", "description": "Liver cirrhosis was induced in rats by intraperitoneal (i.p.) administration of TAA 200 mg/kg twice weekly for 12 weeks, as previously described (1, 2).\nThe FTS was dissolved in PBS and administered i.p. 3 times a week to rats according to their assigned groups. Four groups containing 6 rats each were treated as follows. One group received TAA 200 mg/kg i.p. twice a week and i.p. injections of PBS 3 days a week for 12 weeks (cirrhotic controls for the FTS-treated groups). A second group received TAA for 12 weeks and FTS 5 mg/kg, 3 times a week. […] The two control groups consisted of one that received PBS injections without TAA for 12 weeks (normal controls) and a group of 5 rats that received only FTS 5 mg/kg i.p. for 12 weeks to monitor the appearance of adverse effects.\nThe rats were sacrificed at the completion of the treatment protocols. Their livers were removed and midsections of the left lobes of the livers were processed for light microscopy. This processing consisted of fixing the specimens in a 5% neutral formol solution, embedding the specimens in paraffin, making sections of 5 μm thickness, and staining the sections with hematoxylin and eosin. Reticulin stain was performed to enhance the visualization of the extent and distribution of liver fibrosis. The tissue slices were scanned and scored by two expert pathologists who were not aware of the sample source. The degree of inflammation and fibrosis was expressed as the mean of 10 different fields in each slide that had been classified on a scale of 0-3 according to Muller, et al(3)."}, "Ras [4]": {"test_system": "Ras", "assay": "Ras expression in rat liver membranes (Western blot)", "type": "in vivo", "description": "The levels of Ras proteins in the rat livers were determined by immunoblotting assays using anti Ras antibodies (PanRasAb03, Santa Cruz) as detailed previously (4, 5). Briefly, the livers were homogenized (10% w/v) in 0.32M sucrose, 50 mM Tris HCl, pH 7.4 buffer containing 3mM EDTA, 1 mM EGTA, 5 μg/ml pepstatine, and 5 units/ml opsotonin. Nuclei and cell debris were removed by a 10-minute 1000×g spin. The plasma membrane-enriched fraction was obtained by a 20,000×g 30 minute spin. The resulting pellets were resuspended in homogenization buffer and samples containing 20 μg proteins were used for 12.5% SDS-PAGE (mini gels). The gels were subjected to immunoblotting assays as described previously (4). Each western blot was analyzed 3 times and the data in FIG. 17 represent the means±SD OD of these 3 blots. Ras was also determined by immunohistochemistry."}, "[5]": {"assay": "Solubility in water and saline", "type": "physicochemical", "from_the_text": "In these formulations, the alkyl gallate, etc., is present in an amount of from 0.02% to about 0.05%, and the citric or phosphoric acid is present in an amount of about 0.01%. These formulations are suitable for parenteral administraiton.\nIn one embodiment of the present invention, both of these shortcomings are overcome by formulating the agent in cyclodextrin. This technology is the subject of U.S. Pat. Nos. 5,681,828 and 5,935,941. Cyclodextrins are a group of compounds consisting of, or derived from, the three parent cyclodextrins—alpha-, beta- and gamma-cyclodextrins. Alpha-, beta- and gamma-cyclodextrins are simple oligosaccharides consisting of six, seven or eight anhydroglucose residues, respectively, connected to macrocyles by alpha (1 to 4) glycosidic bonds. Each of the glucose residues of a cyclodextrin contains one primary (O6) and two secondary hydroxyls (O2 and O3) which can be substituted, for example, methylated. Many cyclodextrin preparations in practical use are mixtures of chemically individual derivatives in which only a part of hydroxy groups were substituted and which differ in number and position of these substituents."}, "[6]": {"settings": "FTS 5 mg/kg alone, 12 weeks, no TAA"}, "[7]": {"settings": "TAA + FTS 5 mg/kg 3 times/week for 12 weeks"}},
  "note": "“Also recorded” adds a separate entry of the source.",
  "data": [
    {"smiles": "CC(C)=CCC/C(C)=C/CC/C(C)=C/CSc1ccccc1C(=O)O", "note": "[FTS, farnesyl thiosalicylic acid]", "values": [
      {"measurement": "reduction in the amount of Ras in lymphocytes", "setting": "Ras [1]", "result": "36±7", "unit": "%"},
      {"measurement": "amount of insoluble (P100) Ras", "setting": "Ras [2]; FTS 12.5 μM", "result": "84±9.8", "unit": "%"},
      {"measurement": "amount of insoluble (P100) Ras", "setting": "Ras [2]; FTS 50μM as printed", "result": "52±16", "unit": "%"},
      {"measurement": "levels of soluble (S100) Ras", "setting": "Ras [2]; FTS 12.5 and 25 μM", "result": "no concomitant observable change"},
      {"measurement": "grip strength (hang time on a horizontal bar)", "setting": "MRL/lpr mice; MRL/++ mice", "result": "trend for FTS to impair performance"},
      {"measurement": "grip strength (hang time on a horizontal bar)", "setting": "MRL/lpr mice; MRL/lpr mice, 12-17 weeks of age", "result": "significantly impaired in this test from week 14 compared to the FTS-treated group; also recorded: normalized"},
      {"measurement": "toxicity", "setting": "MRL/lpr and MRL/++ mice", "result": "no significant toxicity"},
      {"measurement": "Fibrotic septa (0-3)", "setting": "[3]; [6]", "result": 0},
      {"measurement": "Nodule formation (0-3)", "setting": "[3]; [6]", "result": 0},
      {"measurement": "Fibrotic septa (0-3)", "setting": "[3]; [7]", "result": "0.9±0.5"},
      {"measurement": "Nodule formation (0-3)", "setting": "[3]; [7]", "result": "0.7 ± 0.6"},
      {"measurement": "decrease in Ras expression in the livers of TAA-treated rats", "setting": "Ras [4]; FTS treatment", "result": 70, "unit": "%"},
      {"measurement": "Ras levels in liver membranes, fold higher than control group", "setting": "Ras [4]; TAA+FTS treated group, TAA alone 17.6±2.0-fold", "result": "4.9±1.2", "unit": "fold"},
      {"measurement": "solubility in water / saline", "setting": "[5]", "result": "insoluble in water"}
    ]}
  ]
}
